The values below come from patent US20110020801A1, “Carboxylesterase-1 Polymorphisms and Methods of Use Therefor” (priority 2007, published 2011).

Series [1] addresses T1, p.Asp260fs CES1 (Homo sapiens, UniProt P23141).
T1 construct: a frameshift mutation that alters residues 260-299 and causes early truncation at a premature stop codon; expressed in transfected cells
T1 sequence (P23141 with tags, fused parts or gaps): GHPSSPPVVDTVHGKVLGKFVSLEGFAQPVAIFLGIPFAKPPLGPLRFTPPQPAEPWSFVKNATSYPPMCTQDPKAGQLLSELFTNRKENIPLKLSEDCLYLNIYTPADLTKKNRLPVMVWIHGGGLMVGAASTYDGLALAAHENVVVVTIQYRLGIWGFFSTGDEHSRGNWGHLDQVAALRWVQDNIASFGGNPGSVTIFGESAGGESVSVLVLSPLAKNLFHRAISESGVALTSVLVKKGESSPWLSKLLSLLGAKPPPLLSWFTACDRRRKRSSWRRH
The series can be described thus: PNPA hydrolysis by S9 of cells expressing p.Asp260fs CES1. It counts as biochemical. An excerpt:
(§1) The desired plasmid was designed such that the recombinant CES1 would be expressed in mammalian cells with a V5-His tag to facilitate detection and purification. Additionally, another plasmid was generated by inserting a stop codon after CES1A1 gene to yield the constructs expressing CES1 without V5-His tag. […] Thus, only untagged CES1 and its associated mutants were used in the enzymatic hydrolysis study. Two constructs of CES1 mutations, p.Gly143Glu and p.Asp260fs, were generated using a site-directed mutagenesis assay. All constructs were subjected to DNA sequencing analysis to confirm that the desired plasmids were obtained. The identified CES1A1 plasmids (WT, p.Gly143Glu, and p.Asp260fs) were co-transfected with pOG44 plasmid at a ratio of 1:10 into Flp-In™-293 cells using […] (Invitrogen, Carlsbad, Calif.). Additionally, the self-ligated pcDNA5/FRT/V5-His-TOPO® vector was included as a vector control. Twenty-four hours after transfection, cells were washed with PBS and fresh complete medium (Dulbecco's modified Eagle's medium containing 10% fetal bovine serum) was added. Forty-eight hours after transfection, cells were split at a 1:10 ratio and cultured at 37° C. until cell attachment was observed. Culture medium was then removed and replenished with complete medium supplemented with the selecting antibiotic hygromycin B (100 μg/ml). The cell lines stably expressing WT, p.Gly143Glu, and p.Asp260fs CES1 were obtained only after a minimum 3-week selection process employing hygromycin B. Each generated cell line was identified by both expression detection and enzymatic function assays.
(§2) After attaining approximately 95% confluence, cells were rinsed and harvested in PBS containing 10 mM HEPES (pH 7.4). The cell suspension was then sonicated and the supernatant 9000 (S9) fraction was collected by centrifugation at 9000 g for 30 min at 4° C. The protein concentration was determined using a Pierce BCA assay kit (Rockford, Ill.).
(§3) The hydrolysis of PNPA was carried out in 96-well culture plates at 37° C. in a final volume of 200 μl. The S9 of cells expressing WT and mutant CES1 were diluted in reaction buffer (PBS containing 10 mM HEPES, pH 7.4) with a final S9 concentration of 20 μg/ml and preincubated at 37° C. for 10 min. […] The formation of p-nitrophenol (PNP) from PNPA was determined by the absorbance at 405 nm following incubation at 37° C. for 10 min.
(§4) Thus, following the enzymatic assay, the values determined for spontaneous PNP and RA hydrolysis were subtracted from the total PNP and RA production. […] All collected data were fit to the Michaelis-Menten equation, and kinetic parameters were calculated using nonlinear regression analysis with Graphpad Prism software (Graphpad Software Inc., San Diego, Calif.)

The target in series [2] is T2, p.Gly143Glu CES1 (Homo sapiens, UniProt P23141, G143E).
T2 construct: inserting a stop codon after CES1A1 gene to yield the constructs expressing CES1 without V5-His tag; expressed in transfected cells
T2 sequence (P23141 18-567 G143E/Y526T): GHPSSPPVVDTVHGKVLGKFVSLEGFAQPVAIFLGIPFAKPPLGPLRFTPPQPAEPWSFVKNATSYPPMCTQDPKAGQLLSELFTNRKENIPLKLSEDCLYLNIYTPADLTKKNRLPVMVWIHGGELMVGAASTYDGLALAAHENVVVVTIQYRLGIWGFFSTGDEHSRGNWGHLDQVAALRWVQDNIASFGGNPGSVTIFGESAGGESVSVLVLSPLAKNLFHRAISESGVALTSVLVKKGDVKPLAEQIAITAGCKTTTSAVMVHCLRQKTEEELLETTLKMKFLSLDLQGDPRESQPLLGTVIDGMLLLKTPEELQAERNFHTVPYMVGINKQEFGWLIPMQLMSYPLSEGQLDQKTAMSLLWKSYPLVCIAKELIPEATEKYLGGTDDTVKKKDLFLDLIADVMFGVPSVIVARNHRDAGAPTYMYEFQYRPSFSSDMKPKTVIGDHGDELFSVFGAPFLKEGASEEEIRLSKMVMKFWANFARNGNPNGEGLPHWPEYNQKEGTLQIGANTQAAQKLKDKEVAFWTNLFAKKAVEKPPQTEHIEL
The experiment in a line: PNPA hydrolysis by S9 of cells expressing p.Gly143Glu CES1. In kind it is biochemical. The settings on record: S9 20 μg/ml, 37° C., 10 min, mean ± S.D. (n = 3).
Description: as §1, §2, §3, §4

Series [3] concerns the target T3, p.Gly143Glu CES1 (Homo sapiens, UniProt P23141, G143E/Y526T).
T3 construct: inserting a stop codon after CES1A1 gene to yield the constructs expressing CES1 without V5-His tag; expressed in transfected cells
T3 sequence (P23141 18-567 G143E/Y526T): T2 sequence (P23141 18-567 G143E/Y526T)
The description is as above. In kind it is biochemical.
Description: as §1, §2, §3, §4

Series [4] has as its target T4, WT CES1 (Homo sapiens, UniProt P23141).
T4 construct: inserting a stop codon after CES1A1 gene to yield the constructs expressing CES1 without V5-His tag; expressed in transfected cells
T4 sequence (P23141 18-567): T2 sequence (P23141 18-567 G143E/Y526T) with E126G, T509Y
The experiment in a line: PNPA hydrolysis by S9 of Flp-In-293 cells expressing WT CES1. It counts as biochemical. The conditions noted are these: S9 20 μg/ml, 37° C., 10 min, mean ± S.D. (n = 3). An excerpt: The desired plasmid was designed such that the recombinant CES1 would be expressed in mammalian cells with a V5-His tag to facilitate detection and purification. Additionally, another plasmid was generated by inserting a stop codon after CES1A1 gene to yield the constructs expressing CES1 without V5-His tag. […] Thus, only untagged CES1 and its associated mutants were used in the enzymatic hydrolysis study. Two constructs of CES1 mutations, p.Gly143Glu and p.Asp260fs, were generated using a site-directed mutagenesis assay. All constructs were subjected to DNA sequencing analysis to confirm that the desired plasmids were obtained. […]
(§5) After attaining approximately 95% confluence, cells were rinsed and harvested in PBS containing 10 mM HEPES (pH 7.4). […] The protein concentration was determined using a Pierce BCA assay kit (Rockford, Ill.).
The hydrolysis of PNPA was carried out in 96-well culture plates at 37° C. in a final volume of 200 μl. […] The formation of p-nitrophenol (PNP) from PNPA was determined by the absorbance at 405 nm following incubation at 37° C. for 10 min.
Thus, following the enzymatic assay, the values determined for spontaneous PNP and RA hydrolysis were subtracted from the total PNP and RA production. […]

Series [5] is described as follows: Spontaneous hydrolysis in reaction buffer. It counts as physicochemical. The settings on record: PBS containing 10 mM HEPES, pH 7.4. How it is done:
as §4

For a further series, the target named is T5, hCES1 (Homo sapiens, UniProt P23141).
T5 sequence (P23141 18-567): T2 sequence (P23141 18-567 G143E/Y526T) with E126G, T509Y
The settings on record: in vitro; cited from earlier work.

Series [6] deals with T2, p.Gly143Glu CES1. The series can be described thus: MPH hydrolysis to ritalinic acid by S9 of cells expressing p.Gly143Glu CES1 (HPLC). In kind it is biochemical. The conditions noted are these: S9 500 μg/ml, even at very high S9 concentration (2 mg/ml); 37° C., 2 h.
Description: as §1, with “Forty-eight hours after transfection, cells were split at a 1:10 ratio and cultured at 37° C. until cell attachment was observed. Culture medium was then removed and replenished with complete medium supplemented with the selecting antibiotic hygromycin B (100 μg/ml). The cell lines stably expressing WT, p.Gly143Glu, and p.Asp260fs CES1 were obtained only after a minimum 3-week selection process employing hygromycin B. Each generated cell line was identified by both expression detection and enzymatic function assays.” left out
as §5
(§6) For the study of MPH hydrolysis, the reaction was conducted in 1.5 mL eppendorf tubes with a final S9 concentration of 0.5 mg/mL at a total volume of 100 μL. […] Concentrations of the primary phase I MPH metabolite produced via hydrolysis, ritalinic acid (RA), was determined utilizing an established HPLC method described below.
(§7) Thus, following the enzymatic assay, the values determined for spontaneous PNP and RA hydrolysis were subtracted from the total PNP and RA production. […] All collected data were fit to the Michaelis-Menten equation, and kinetic parameters were calculated using nonlinear regression analysis with Graphpad Prism software (Graphpad Software Inc., San Diego, Calif.) […]

Series [7] concerns the target T1, p.Asp260fs CES1. The experiment in a line: MPH hydrolysis to ritalinic acid by S9 of cells expressing p.Asp260fs CES1 (HPLC). In kind it is biochemical. The conditions noted are these: S9 500 μg/ml, even at very high S9 concentration (2 mg/ml); 37° C., 2 h.
Description: as §1, with “Forty-eight hours after transfection, cells were split at a 1:10 ratio and cultured at 37° C. until cell attachment was observed. Culture medium was then removed and replenished with complete medium supplemented with the selecting antibiotic hygromycin B (100 μg/ml). The cell lines stably expressing WT, p.Gly143Glu, and p.Asp260fs CES1 were obtained only after a minimum 3-week selection process employing hygromycin B. Each generated cell line was identified by both expression detection and enzymatic function assays.” left out
as §5, §6, §7

A short description of series [8]: Pharmacokinetic study of orally administered racemic MPH in normal volunteers. The settings on record: single oral 0.3 mg/kg racemic MPH, plasma. It counts as in vivo, human. As to the method:
Analysis of Pharmacokinetic, Hemodynamic, and Statistical Data. Standard pharmacokinetic analyses were applied to the MPH data using WinNonLin software (Pharsight, Mountainview, Calif.) and are described in a previous publication.^10 The AUC, Cmax, and t1/2 were analyzed using the Extreme Studentized Deviate (ESD) single-outlier procedure^12 to determine whether the parameter measurements for the slow metabolizer constituted true statistical outliers. For each parameter, the ESD procedure confirmed the measurement as an outlier at the p<0.01 level. Because this procedure is known to be conservative, the data from the aberrant metabolizer were reassessed using a similar procedure with respect to the normal participants only.

The conditions of series [9]: cited from earlier work.
Series [10] deals with T4, WT CES1. The experiment in a line: MPH hydrolysis to ritalinic acid by S9 of cells expressing WT CES1 (HPLC). It counts as biochemical. The settings on record: S9 0.5 mg/mL, 37° C., 2 hours, mean ± S.D. (n = 3).
Description: as §1, with “Forty-eight hours after transfection, cells were split at a 1:10 ratio and cultured at 37° C. until cell attachment was observed. Culture medium was then removed and replenished with complete medium supplemented with the selecting antibiotic hygromycin B (100 μg/ml). The cell lines stably expressing WT, p.Gly143Glu, and p.Asp260fs CES1 were obtained only after a minimum 3-week selection process employing hygromycin B. Each generated cell line was identified by both expression detection and enzymatic function assays.” left out
as §5, §6, §7

Where [11] appears, read: S9 20 μg/ml, 37° C., 10 min, mean ± S.D. (n = 3).

Changes are numbered by the printed parent chain. Where “and” joins values, the source holds several entries; their conditions need not be identical. Equal values may be shown once.

One may read the Km as the substrate concentration at which the rate is half of its maximum. As to `CC(=O)Oc1ccc([N+](=O)[O-])cc1` [PNPA, p-nitrophenyl acet], the “Km relative to WT” value on p.Asp260fs CES1 [1] is given as “approximately 9.5 times”; on p.Gly143Glu CES1 [3] it was “comparable to that of WT”. For the same compound, the “Vmax as percent of that of WT CES1” value on p.Asp260fs CES1 [1] is 5.7%; on p.Gly143Glu CES1 [3], 18.6%. For the same compound, the Km at p.Asp260fs CES1 [1] (setting [11]) was 950 ± 352 µM; at p.Gly143Glu CES1 [2], 93.2 ± 9.8 µM; at WT CES1 [4], 107 µM. Besides, the Vmax is 28.0 ± 6.1 nmole/min/mg protein at p.Asp260fs CES1 [1] (setting [11]); 92.0 ± 2.9 nmole/min/mg protein at p.Gly143Glu CES1 [3] (setting [11]); 493.9 nmole/min/mg protein and 493.9 ± 14.3 nmole/min/mg protein on WT CES1 [4]. For the same compound, the “stability in reaction buffer” value in series [5] is given as “spontaneously hydrolyzed”.

A word on the Cmax: it is the highest concentration seen after dosing. `COC(=O)[C@@H](c1ccccc1)[C@@H]1CCCCN1` [l-MPH, l-threo-(S,S)-methylphenidate]: the “catalytic efficiency of hCES1 relative to d-MPH” value at hCES1 is reported as “up to 6 fold”. On p.Gly143Glu CES1 [6], the “catalytic activity towards MPH hydrolysis” value is reported as “failed to show any hydrolytic activity”. The “catalytic activity towards MPH hydrolysis” value at p.Asp260fs CES1 [7] is on record as “failed to show any hydrolytic activity”. Moreover, the “Cmax of slow metabolizer relative to the mean of the other subjects” value in series [8] was “approximately 100 fold”. In series [8] (slow metabolizer), this compound displayed a Cmax of 62 ng/mL. In addition, the “fraction of the total circulating blood concentrations of MPH” value in series [9] (racemic MPH, enantioselective analytical methods) is given as 1-15%. The “blood concentration relative to that of d-MPH” value in [9] (studies that measured both isomers) was 1-15%. The “AUCinf relative to that of d-MPH” value in [9] (various oral formulations) is listed as 1%-15%. At WT CES1 [10], the Km came to 776 ± 162 µM; the Vmax is 1701.0 pmole/min/mg protein and 1701.0 ± 196.5 pmole/min/mg protein.
